Reference: ChEMBL document CHEMBL1909046, “DrugMatrix in vitro pharmacology data”

Assays:
[1] = DRUGMATRIX: GABAA, Muscimol, Central radioligand binding (ligand: [3H] Muscimol); type: cell membranes, Rattus norvegicus, Wistar, Brain, Membrane; conditions: Not Active = under 50% inhibition at 10 µM
[2] = target: T1, Neutrophil elastase (Homo sapiens, UniProt P08246); type: tissue-based;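 also: inhibition of neutrophil elastase enzyme activity, measured with a p-nitroanilide-linked peptide substrate; in other assays of this panel Not Active means under 50% inhibition at 10 µM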
T1 sequence (P08246 whole entry): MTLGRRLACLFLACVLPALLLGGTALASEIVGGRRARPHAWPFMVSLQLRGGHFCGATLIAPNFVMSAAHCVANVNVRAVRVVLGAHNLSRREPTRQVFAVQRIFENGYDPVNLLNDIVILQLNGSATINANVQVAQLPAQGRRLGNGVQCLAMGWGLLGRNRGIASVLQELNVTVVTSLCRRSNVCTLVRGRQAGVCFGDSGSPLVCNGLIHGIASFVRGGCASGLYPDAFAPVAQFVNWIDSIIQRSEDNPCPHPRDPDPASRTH

[3] = DRUGMATRIX: Glutamate, NMDA, Agonism radioligand binding (ligand: [3H] CGP-39653); type: cell membranes, Rattus norvegicus, Wistar, Cerebral cortex, Membrane; conditions: Not Active = under 50% inhibition at 10 µM
[4] = target: T2, Alpha-1A adrenergic receptor (Rattus norvegicus, UniProt P43140); test: DRUGMATRIX: Alpha-1A adrenergic receptor radioligand binding (ligand: prazosin); type: cell membranes, Wistar, Submaxillary gland, Membrane; conditions: Not Active = under 50% inhibition at 10 µM
T2 sequence (P43140 whole entry): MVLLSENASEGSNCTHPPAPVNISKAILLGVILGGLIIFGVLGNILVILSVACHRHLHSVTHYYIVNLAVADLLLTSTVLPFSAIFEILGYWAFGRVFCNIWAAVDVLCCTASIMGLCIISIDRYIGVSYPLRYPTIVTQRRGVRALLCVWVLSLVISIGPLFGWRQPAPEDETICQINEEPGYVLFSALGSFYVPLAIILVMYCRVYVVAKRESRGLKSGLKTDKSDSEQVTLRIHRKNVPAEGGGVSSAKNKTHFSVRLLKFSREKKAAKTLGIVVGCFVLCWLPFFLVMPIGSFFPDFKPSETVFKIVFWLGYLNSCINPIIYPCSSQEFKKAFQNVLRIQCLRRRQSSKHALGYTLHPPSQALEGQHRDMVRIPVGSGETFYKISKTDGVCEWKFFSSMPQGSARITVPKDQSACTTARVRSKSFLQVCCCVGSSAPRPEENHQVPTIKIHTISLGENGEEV

[5] = target: Mu-type opioid receptor (Homo sapiens, UniProt P35372); test: DRUGMATRIX: Opiate mu (OP3, MOP) radioligand binding (ligand: [3H] Diprenorphine); type: cell membranes, CHO-K1, Membrane; conditions: Not Active = under 50% inhibition at 10 µM
Chain of Mu-type opioid receptor (P35372 whole entry): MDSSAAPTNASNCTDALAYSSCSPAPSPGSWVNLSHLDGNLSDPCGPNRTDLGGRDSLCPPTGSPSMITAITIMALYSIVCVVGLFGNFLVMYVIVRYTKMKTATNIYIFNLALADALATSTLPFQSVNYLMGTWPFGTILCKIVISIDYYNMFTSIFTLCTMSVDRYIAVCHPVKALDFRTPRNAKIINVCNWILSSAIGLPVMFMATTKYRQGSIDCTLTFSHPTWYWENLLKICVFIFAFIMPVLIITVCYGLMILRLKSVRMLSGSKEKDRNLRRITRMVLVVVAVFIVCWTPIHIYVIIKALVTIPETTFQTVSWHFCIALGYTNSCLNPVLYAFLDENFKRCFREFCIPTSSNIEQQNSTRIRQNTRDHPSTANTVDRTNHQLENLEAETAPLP

[6] = DRUGMATRIX: Leukotriene, BLT (LTB4) radioligand binding (ligand: [3H]LTB4); type: cell membranes, Membrane; conditions: u-937; Not Active = under 50% inhibition at 10 µM
[7] = target: Epidermal growth factor receptor (Homo sapiens, UniProt P00533); test: DRUGMATRIX: Protein Tyrosine Kinase, EGF Receptor enzyme inhibition (substrate: Poly(Glu:Tyr)); type: cell-based, Insect cells; conditions: Not Active = under 50% inhibition at 10 µM
[8] = target: Cytochrome P450 3A4 (Homo sapiens, UniProt P08684); conditions: bti-tn-5b1-4; also: in other assays of this panel Not Active means under 50% inhibition at 10 µM
Chain of Cytochrome P450 3A4 (P08684 whole entry): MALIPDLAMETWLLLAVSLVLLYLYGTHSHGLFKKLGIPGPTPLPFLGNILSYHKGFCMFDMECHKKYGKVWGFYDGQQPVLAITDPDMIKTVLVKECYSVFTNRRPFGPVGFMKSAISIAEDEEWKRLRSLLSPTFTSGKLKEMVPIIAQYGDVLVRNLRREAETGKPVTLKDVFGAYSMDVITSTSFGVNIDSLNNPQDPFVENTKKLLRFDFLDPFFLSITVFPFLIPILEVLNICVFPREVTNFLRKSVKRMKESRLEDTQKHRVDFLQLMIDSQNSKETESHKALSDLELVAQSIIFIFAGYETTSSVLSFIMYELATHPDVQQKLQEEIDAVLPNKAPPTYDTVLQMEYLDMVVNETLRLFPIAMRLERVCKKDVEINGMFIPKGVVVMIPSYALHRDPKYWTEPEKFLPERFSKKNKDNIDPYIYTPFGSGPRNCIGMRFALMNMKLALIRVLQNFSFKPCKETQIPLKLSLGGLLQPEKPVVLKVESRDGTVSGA

COc1cc(N)nc2[nH]c(-c3ccc(F)cc3)c(-c3ccncc3)c12
IC50 [1]: Not Active
Ki [1]: Not Active
IC50 [2]: Not Active
IC50 [3]: Not Active
Ki [3]: Not Active
IC50 [4]: Not Active
IC50 ([5]; cho-k1): Not Active
IC50 [6]: Not Active
Ki [6]: Not Active

O=c1[nH]c2ccccc2n1CCCN1CCC(n2c(=O)[nH]c3cc(Cl)ccc32)CC1 [DOMPERIDONE]
IC50 [2]: Not Active
IC50 ([4]; read-out: IC50): 0.285 µM
Ki ([4]; read-out: Ki): 0.116 µM
IC50 ([7]; insect cells): Not Active

OCCN1CCN(CCCN2c3ccccc3Sc3ccc(C(F)(F)F)cc32)CC1 [FLUPHENAZINE]
IC50 [2]: Not Active
IC50 ([4]; read-out: IC50): 0.024 µM
Ki ([4]; read-out: Ki): 0.00958 µM
IC50 ([7]; read-out: IC50): 40.1 µM
Ki [5]: 8.42 µM
IC50 ([5]; read-out: IC50): 20.7 µM

CN(CCOc1ccc(CC2SC(=O)NC2=O)cc1)c1ccccn1 (stereo not given) [ROSIGLITAZONE]
IC50 [1]: Not Active
Ki [1]: Not Active
IC50 [2]: Not Active
IC50 [3]: Not Active
Ki [3]: Not Active
IC50 [4]: Not Active
IC50 ([7]; insect cells): Not Active
IC50 ([5]; cho-k1): Not Active
IC50 [6]: Not Active
Ki [6]: Not Active

C=C(C)[C@H]1Cc2c(ccc3c2O[C@@H]2COc4cc(OC)c(OC)cc4[C@@H]2C3=O)O1 [ROTENONE]
IC50 [8]: Not Active
Ki [8]: Not Active
IC50 [1]: Not Active
Ki [1]: Not Active
IC50 [2]: Not Active
IC50 [3]: Not Active
Ki [3]: Not Active
IC50 [4]: Not Active
IC50 ([7]; insect cells): Not Active
IC50 [6]: Not Active
Ki [6]: Not Active

CO[C@H]1C[C@@H]2CC[C@@H](C)[C@@](O)(O2)C(=O)C(=O)N2CCCC[C@H]2C(=O)O[C@H]([C@H](C)C[C@@H]2CC[C@@H](O)[C@H](OC)C2)CC(=O)[C@H](C)/C=C(\C)[C@@H](O)[C@@H](OC)C(=O)[C@H](C)C[C@H](C)/C=C/C=C/C=C/1C [SIROLIMUS]
IC50 [1]: Not Active
Ki [1]: Not Active
IC50 [2]: Not Active
IC50 [3]: Not Active
Ki [3]: Not Active
IC50 [4]: Not Active
IC50 ([7]; insect cells): Not Active
IC50 ([5]; cho-k1): Not Active
IC50 [6]: Not Active
Ki [6]: Not Active

CC(C)(C)NC[C@H](O)COc1nsnc1N1CCOCC1 [TIMOLOL]
IC50 [1]: Not Active
Ki [1]: Not Active
IC50 [2]: Not Active
IC50 [3]: Not Active
Ki [3]: Not Active
IC50 [4]: Not Active
IC50 ([7]; insect cells): Not Active
IC50 ([5]; cho-k1): Not Active
IC50 [6]: Not Active
Ki [6]: Not Active

CCS(=O)(=O)CCn1c([N+](=O)[O-])cnc1C [TINIDAZOLE]
IC50 [1]: Not Active
Ki [1]: Not Active
IC50 [2]: Not Active
IC50 [3]: Not Active
Ki [3]: Not Active
IC50 [4]: Not Active
IC50 ([7]; insect cells): Not Active
IC50 ([5]; cho-k1): Not Active
IC50 [6]: Not Active
Ki [6]: Not Active

O=C(O)C(Cl)(Cl)Cl [TRICHLOROACETIC ACID]
IC50 [8]: Not Active
Ki [8]: Not Active
IC50 [1]: Not Active
Ki [1]: Not Active
IC50 [2]: Not Active
IC50 [3]: Not Active
Ki [3]: Not Active
IC50 [4]: Not Active
IC50 ([7]; insect cells): Not Active
IC50 [6]: Not Active
Ki [6]: Not Active

Cc1cn([C@H]2C[C@H](N=[N+]=[N-])[C@@H](CO)O2)c(=O)[nH]c1=O [ZIDOVUDINE]
IC50 [8]: Not Active
Ki [8]: Not Active
IC50 [1]: Not Active
Ki [1]: Not Active
IC50 [2]: Not Active
IC50 [3]: Not Active
Ki [3]: Not Active
IC50 [4]: Not Active
IC50 ([5]; cho-k1): Not Active
IC50 [6]: Not Active
Ki [6]: Not Active

STANNOUS FLUORIDE
IC50 [8]: Not Active
Ki [8]: Not Active
IC50 [1]: Not Active
Ki [1]: Not Active
IC50 [2]: Not Active
Ki [2]: Not Active
IC50 [3]: Not Active
Ki [3]: Not Active
IC50 [4]: Not Active
Ki [4]: Not Active
IC50 ([7]; insect cells): Not Active
Ki ([7]; insect cells): Not Active
IC50 [6]: Not Active
Ki [6]: Not Active

THIMEROSAL
IC50 [8]: Not Active
Ki [8]: Not Active
IC50 [1]: Not Active
Ki [1]: Not Active
IC50 [2]: Not Active
Ki [2]: Not Active
IC50 [3]: Not Active
Ki [3]: Not Active
IC50 [4]: Not Active
Ki [4]: Not Active
IC50 ([7]; insect cells): Not Active
Ki ([7]; insect cells): Not Active
IC50 [6]: Not Active
Ki [6]: Not Active
